Results as given in patent publication US20120165319A1, “INHIBITORS OF INTERLEUKIN-1 BETA CONVERTING ENZYME” (VERTEX PHARMACEUTICALS INCORPORATED, priority 1995, published 2012).

Tests used:
[1] = system: IL-1β levels in the peritoneal fluid, carrageenan-challenged mice; assay: Mouse carrageenan peritoneal inflammation; assay type: in vivo; conditions: oral administration; 214e at 50 mg/kg; result in words
Experimental: Mouse Carrageenan Peritoneal Inflammation
Inflammation was induced in mice with an intraperitoneal (IP) injection of 10 mg carrageenan in 0.5 ml of saline (Griswold et al., Inflammation, 13, pp. 727-739 (1989)). Drugs are administered by oral gavage in ethanol/PEG/water, β-cyclodextrin, labrosol/water or cremophor/water vehicle. The mice are sacrificed at 4 hours post carrageenan administration, then injected IP with 2 ml of saline containing 5 U/ml heparin. After gentle massage of the peritoneum, a small incision is made, the contents collected and volume recorded. Samples are kept on ice until centrifuged (130×g, 8 mins at 4° C.) to remove cellular material, and the resultant supernatant stored at −20° C. IL-1β levels in the peritoneal fluid are determined by ELISA.

[2] = In vivo bioavailability determination (oral, rat)
Experimental: In Vivo Bioavailability Determination
The drugs (10-100 mg/kg) were dosed orally to rats (10 mL/kg) in ethanol/PEG/water, β-cyclodextrin, labrosol/water or cremophor/water. Blood samples were drawn from the carotid artery at 0.25, 0.50, 1, 1.5, 2, 3, 4, 6, and 8 hours after dosing, centrifuged to plasma and stored at −70° C. until analysis. Aldehyde concentrations were determined using an enzymatic assay. Pharmacokinetic analysis of data was performed by non-linear regression using RStrip (MicroMath Software, UT).

[3] = system: male DBA/1J mice, type II collagen-induced arthritis; assay: Type II collagen-induced arthritis; assay type: in vivo, mouse; conditions: oral gavage twice a day 10, 25 and 50 mg/kg (214e: 50 mg/kg once a day), Arthritis Severity Score, result in words
Experimental: Type II Collagen-Induced Arthritis
Type II collagen-induced arthritis was established in male DBA/1J mice at described Wooley and Geiger (Wooley, P. H., Methods in Enzymology, 162, pp. 361-373 (1988) and Geiger, T., Clinical and Experimental Rheumatology, 11, pp. 515-522 (1993)). Chick sternum Type II collagen ([…] in 10 mM acetic acid) was emulsified with an equal volume of Freund's complete adjuvant (FCA) by repeated passages (400) between two 10 ml glass syringes with a gauge 16 double-hub needle. Mice were immunized by intradermal injection (50 μl; […], CII per mouse) of collagen emulsion 21 days later at the contra-lateral side of the tail base. Drugs were administered twice a day (10, 25 and 50 mg/kg) by oral gavage approximately 7 h apart. Vehicles used included ethanol/PEG/water, β-cyclodextrin, labrosol/water or cremophor/water. Drug treatments were initiated within 2 h of the CII booster immunization. Inflammation was scored on a 1 to 4 scale of increasing severity on the two front paws and the scores are added to give the final score.

ICE = target: T1, ICE (Homo sapiens, UniProt P29466); assay: Inhibition of IGIF processing by ICE inhibitors, measured in ICE inhibition assays (Example 27, Table 22); assay type: biochemical; conditions: read-out: UV-Visible Ki
T1 sequence (P29466 120-297 limits assumed): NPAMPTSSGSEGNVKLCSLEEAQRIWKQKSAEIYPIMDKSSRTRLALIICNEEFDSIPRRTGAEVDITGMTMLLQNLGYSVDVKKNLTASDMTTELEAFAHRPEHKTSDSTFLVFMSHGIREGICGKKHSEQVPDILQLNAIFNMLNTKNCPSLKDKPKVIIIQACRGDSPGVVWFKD
T1 sequence (P29466 317-404 limits assumed): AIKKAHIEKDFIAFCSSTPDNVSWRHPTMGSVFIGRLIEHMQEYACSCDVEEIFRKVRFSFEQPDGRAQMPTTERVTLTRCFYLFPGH
Experimental: Inhibition of IGIF processing by ICE inhibitors was measured in ICE inhibition assays as described herein (see Example 1 and Table 22).

IL-1β, human PBMC = assay: Human PBMC assay (Example 27): IL-1β production; assay type: cell-based; conditions: Homo sapiens, PBMC; Table 22; read-out: Cell PBMC avg. IC50
Experimental: Since the processing and secretion of biologically active IGIF is mediated by ICE, we compared the activity of a reversible ICE inhibitor (Ac-YVAD-CHO) on IL-1β and IFN-γ production in a peripheral blood mononuclear cell (PBMC) assay (Examples 27).
Human buffy coat cells were obtained from blood donors and peripheral blood mononuclear cells (PBMC) were isolated by centrifugation in LeukoPrep tubes (Becton-Dickinson, Lincoln Park, N.J.). PBMC were added (3×10^6/well) to 24 well Corning tissue culture plates and after 1 hr incubation at 37° C., non-adherent cells were removed by gently washing. Adherent mononuclear cells were stimulated with LPS (1 μg/ml) with or without ICE inhibitor in 2 ml RPMI-1640-10% FBS. After 16-18 hr incubation at 37° C., IGIF and IFN-γ were quantitated in culture supernatants by ELISA.

Ki (ICE) [nM]	Compound	inhibition of IL-1β production in carrageenan-challenged mice [1]	blood levels of drug when dosed orally ([2]; oral 10-100 mg/kg, result in words)	Drug Availability ([2]; oral, dose 45 mg/kg) [%]	Cmax ([2]; plasma, oral, dose 45 mg/kg, read-out: Cmax) [ng/mL]	inhibition of inflammation / progression of type II collagen-induced arthritis [3]	IC50 (IL-1β, human PBMC) [nM]
–	O=C[C@H](CC(=O)O)NC(=O)[C@@H]1CCCN2C(=O)CC[C@H](NC(=O)c3ccccc3)C(=O)N12 [Compound 214e, [3S(1S,9S)]3-(9-Benzoylamino-6,10-dioxo-1,2,3,4,7,8,9,10-octahydro-6H-pyridazino[1,2-a][1,2]-diazepine-1-carboxamido)-4-oxobutanoic acid]	did not inhibit IL-1β production	not detected	0.9	200	did not inhibit inflammation	–
1.3	O=C[C@H](CC(=O)O)NC(=O)[C@@H]1CCCN2C(=O)CC[C@H](NC(=O)c3nccc4ccccc34)C(=O)N12 [Compound 412, [3S(1S,9S)]3-[6,10-Dioxo-9-(isoquinolin-1-oylamino)-1,2,3,4,7,8,9,10-octahydro-6H-pyridazino[1,2-a][1,2]diazepine-1-carboxamido]-4-oxobutanoic acid]	–	–	–	–	–	580
